According to patent US20180356397A1, “MIMICRY OF NEUROINFLAMMATORY MICROENVIRONMENTS AND METHODS OF USE AND MANUFACTURING THEREOF” (priority 2017, published 2018):

Legend:
[1] = system: neutrophils co-cultured with A-beta activated microglia; assay: neutrophil recruitment toward soluble A-beta activated microglia (co-culture in microfluidic device); type: cell-based, human; conditions: for recruiting of neutrophils in the recapitulated AD environment: microglia-derived chemokines by A-beta stimulation; for higher neutrophil migration in central chamber: soluble A-beta 2.2 uM, 6 hours
From the text: Microglial cells are resident brain immune cells and stimulated by soluble A-beta42, which is a signature of human AD neurotoxic peptide. Based on our previous observation of neutrophil accumulation on A-beta plaques in in vivo, we hypothesize that A-beta activated microglial cells has a critical role in recruiting neutrophil. Stimulated microglial cells can release various types of chemokines and/or cytokines to increase inflammatory behavior or to clear A-beta in inflamed region. Furthermore, those secreted chemokines and/or cytokines can recruit other cell types including peripheral immune cells (FIG. 9A). To modulate this whole process, we established an in vitro AD brain-blood model (ADBBM) using microglia and neutrophil to mimic the brain microenvironment. To accommodate the different cells separately in a single microfluidic platform, we employed mechanically separated two chambers, which are connected through neutrophil specific migration channels (10×5×500 μm in width, height, and length) forming gradients of chemokines and/or cytokines (FIG. 9B).
Compared to a parallel configuration having equal surface areas for cell loading and cell collection, the asymmetric configuration of the current microfluidic device 10 has a small central cell collecting compartment (central chamber 30), which is smaller than a large annular cell loading compartment (annular chamber 50) by a factor of 3, 4, 5, 6, 7, 8, 9, 10 or greater. […] This enhances the gradient formation and detection of recruitment. The long and thin migration channels 60 can block spontaneous entrance of inactivated neutrophil through mechanical constraints. Using this platform, we could culture microglial cells for extended periods to accumulate enough soluble factors and could observe neutrophil signature movement at single cell resolution, in real-time. Red membrane dye stained microglial cells plated first in central chamber 30 and incubated for 3 days with soluble A-beta to modulate chemokine/cytokine enriched AD microenvironment. Freshly isolated neutrophil labeled with green membrane dye plated on annular chamber 50 and incubated under microscope to observe their movement and accumulation in central chamber 30. Precise numbers of neutrophils are reproducibly loaded and uniformly distributed in annular chamber 50 and this design allows us to evaluate the response of neutrophil to various types of chemokines and/or cytokines. We tested 200 independent conditions at the same time, by using real time imaging of process in an array of twenty-five formatted on a single well plate 140 or an array of one-hundred nineteen formatted single well plate 140 (FIG. 7 and FIG. 8).
To validate the dependency of neutrophil migration toward soluble A-beta activated microglia, microglial cells plated on central chamber 30 with various cell numbers (5,000, 10,000, 20,000 cells). Microglial cells are pre-labeled with membrane dye according to manufacturer's protocol to observe their morphology change. After 24 hour incubation of microglia alone, prepared soluble A-beta (2.2 uM) with reduced 1% FBS Prigrowlll media were changed to incubate further for 48 hours. After 48 hours, freshly isolated neutrophil labeled with green membrane dye plated on annular chamber 50 and incubated on microscopic real time imaging chamber. Neutrophil (green) migration could be observed toward soluble A-beta activated microglia (red) cultured central chamber 30 after 6 hours (FIG. 11A). 2.4-, 1.2-times higher neutrophil migration could be observed in central chamber 30 in response to 10,000 and 20,000 cultured microglia in central chamber 30 by showing the dependency of neutrophil recruitment in cell numbers. […] By utilizing high-resolution and spatiotemporal controlled microscopic imaging method, we also can quantify the persistent movement of microglial cells in various stimulations. […]

[2] = system: microglia; assay: A-beta stimulation of microglia and analysis of cytokine release / activation markers; type: cell-based, human
From the text: To characterize the phenotype changes in microglia induced by soluble A-beta, individual microglial cells were monitored for three days using time-lapse imaging microscopy. […] Morphological changes could be observed at 48 hrs following cell seeding (FIG. 9C bottom, +A-beta). As determined by image analysis, microglial cells became large and switched into more amoeboid type as the length and area of microglial somata (cell bodies) increased in all direction (FIG. 9C). And filopodia, which is observed in resting mode microglia, could not be observed in A-beta stimulated microglia. Furthermore, exposure of microglia to soluble A-beta induced up-regulation of microglial activation markers such as CD11b (FIGS. 9D and 9E) and CD68 (FIG. 9F). […] Membrane stained microglial cells (red) immunostained with anti-CD68 to observe activation of microglial cells with A-beta.
As microglia are the predominant resident immune cells of the brain, we next determined the effects of the soluble A-beta AD microenvironment on the inflammatory activity of microglia. Exposure to soluble A-beta was associated with significant increases in chemokine release (FIG. 9B).
(§1) Immortalized microglial cells (SV40-microglia) were purchased from Abm company (ABM Inc., Montreal, Canada). The cells were plated onto T25 cell culture flasks (BD Biosciences, San Jose, Calif., USA) and maintained in Prigrow III Medium (ABM Inc) supplemented with 50 mL FBS (Life Technologies) and 5 mL Pen/Strep (Invitrogen) in a CO2 cell culture incubator. Cell culture media were changed every 3 days until cells were confluent. For neutrophil isolation, human peripheral blood samples from healthy volunteers, aged 18 years and older, were purchased from InvivoGen. Peripheral blood was drawn in 10-ml tube containing a final concentration of 5 mM EDTA (Vacutainer; Becton Dickinson). Nucleated cells were isolated using a HetaSep gradient, followed by the EasySep Human Neutrophil Enrichment Kit (STEMCELL Technologies, Vancouver, Canada) according to the manufacturer's protocol.
For immunofluorescent stain, we rinsed the cells in medium twice with DPBS. To fix, cells were incubated in fresh 4% paraformaldehyde aqueous solution (157-4, ElectronMicroscopy Sciences) for more than 15 minutes at RT followed by rinsing twice with DPBS. To permeabilize, cells were incubated in 0.1% Triton X-100 in PBST (phosphate buffered saline with 0.1% tween®20) for 15 minutes at RT. To block, cells were incubated in 3% human serum albumin for overnight in PBST at 4° C. After incubating with the primary antibody solutions for 24 hour at 4° C., the cells were washed five times. The following antibody (and dilutions) were used: anti-cd11b (1:100, Life Technologies).
Microfluidic devices 10 were cultured for 72 hours, followed by incubation in A-beta containing medium with fetal bovine serum reduced from 10% to 1%. Microglia culture on central chamber 30 were stimulated with A-beta (Sigma Aldrich) at 2.2 uM with […] serum for 72 hrs. The cytokine release profile was assayed with the Human Cytokine 37-membrane kit array (R&D systems) and the resulting cytokine release profiles were quantified with ImageJ analysis.
FIG. 9. Activation of microglial inflammation with A-beta: chemokine release, morphogenesis, and marker expression. […] Both the membrane area (9D) and the amounts of expressed CD11b (9E) increase in the activated microglia with A-beta. ndevice=3, ncell=150. Scale bars: 30 μm. All parameters are presented as mean±SEM.

[3] = system: human primary microglial; assay: microfluidic chemotaxis platform for microglial motility under soluble A-beta gradient; type: cell-based; conditions: soluble monomeric and oligomeric A-beta, picomolar to nanomolar concentrations
From the text: Activated microglia initially take on various morphologies: rounded, ramified shapes, rods to amoeboid forms followed by motile activation, which complicates the visual tracking of individual cells. Previous in vitro attempts to study rat microglial migration in the presence of short-lived damaged axons could not establish long-lasting gradients and could not conclusively differentiate slow accumulation of microglia from heterogeneous activation and random navigation. We developed a novel, microfluidic chemotaxis platform to study the motility of those microglia selectively responding to stimuli in a regulated manner. To understand the specific roles of A-beta in microglial accumulation in the context of AD, we generated a week-long lasting soluble A-beta gradient, patterned insoluble surface-bound A-beta to mimic A-beta signature in AD brains, and isolated human primary microglial responding to A-beta in our platforms. We tested 200 independent conditions in a single batch, while using real time imaging of process in an array of twenty-five formatted single well plate. […] We also observed discernable co-localization of microglia to the sites of insoluble A-beta, representing A-beta plaques.

[4] = system: U87 glioma line; assay: glioma migration/invasiveness in microfluidic device, alone or in co-culture with microglia; type: cell-based; conditions: glioma cells cultured alone
From the text: Here, we reconstituted a microenvironment of boosted brain tumor invasion by inducing glioma migration by using EGF, a chemoattractant for glioma, and promoting the migration via the incorporation with microglia. We plated both glioma and microglia on the outer chamber and EGF in the central chamber, which are connected through migration channels (50×10×500 μm in width, height, and length) forming gradients of chemokines for glioma. We found PAI-1 is abundantly expressed on most glioma lines. Next, we culture the U87 glioma line, which has produced PAI-1, to investigate the hypothesis that glioma-secreted PAI-1 interacts with microglia to affect glioma migration. In co-culture with microglia in a microfluidic device, the invasiveness of PAI-1 expressing U87 cell lines was increased. […] This study has uncovered a mechanism by which glioma cells exploit microglia for increased invasiveness. Specifically, glioma-derived PAI-1 acts upon microglia, which then produces IL-6 to stimulate gliomas. The PAI-1/IL-6 loop is a potential therapeutic target for the currently incurable malignant gliomas.

[5] = system: human neutrophils; assay: microfluidic chemotactic model for neutrophil migration (platform validation with fMLP); type: cell-based; conditions: for neutrophils migrated back from chemoattractant / neutrophils migrated towards chemoattractant: persistence at 1 hour
Experimental: FIG. 10F. Neutrophil recruitment was quantified by comparing the fraction of cells inside the central chamber (CC) to the total number of cells in the corresponding angular chamber device (AC). The R.I. is calculated as R.I.=(CCDay i−CCDay 0)/ACDay i, where Day i is the number of cells in the central chamber and ADDay i is the number of cells in angular chamber. The recruitment index, R.I., is obtained by normalizing with the subtraction at ‘CCDay 0’ cell numbers.
We validated the assay by measuring the migration and accumulation of neutrophils toward a panel of known chemoattractant. To compare the effect of fMLP in various concentrations on neutrophil recruitment, we defined a neutrophil recruitment index, R.I. (FIG. 10B, FIG. 10F), representing the fraction of neutrophil recruited to the central chamber after loading fMLP in the central chamber. We compared the R.I. values under various soluble factors, (fMLP, A-beta, and media) (FIG. 10B) and could observe predominant neutrophil (green) recruitment with N-formyl-methionine-leucine-phenylalanine (fMLP) (10 nM) in central chamber 30 after 6 hours (FIG. 10A). A negligible number of cells entered central chamber in the absence of a chemoattractant by proving that the mechanical barrier 40 can exclude the spontaneous entrance of neutrophil. […] Neutrophils move through migration channels 60 at 18±5 μm/min and could reach central chamber in less than 30 min (FIG. 10G). We compared the migratory response of human neutrophils with various stimulators. […] Concentration-dependent changes in migration patterns in response to fMLP was primarily affect the migrating faction while there was no significant effect on persistent directionality.
as §1
After microglia loading, cells were recorded using time-lapse imaging using a fully automated Nikon TiE microscope with a heated incubator to 37° C. and 5% CO2 (10× magnification; Micro Device Instruments, Avon, Mass., USA). To achieve accurate cell tracking, the maximum time resolution of acquisition was 0.2 frames per second.
FIG. 10. Design and validation of a microfluidic chemotactic model for neutrophil migration. (10A) Neutrophils (green) instantly migrated along microchannels designed for neutrophils with a gradient of fMLP (10 nM) and accumulated in a central chamber, the source of fMLP. (10C) Time-lapse images show a simultaneous bi-directional migration of neurophils under the fMLP gradient on a single cellular level. The red arrows indicate persistent forward migration of neutrophils along the gradient of the chemoattractant and green arrows indicate the backward migration against the gradient. […] Combined data from n=5 independent experiments. Scale bars: (10A) 500 μm, (10C) 50 μm. Data represented as mean±SEM.

[6] = microglia exposed to soluble A-beta compared to microglia without A-beta

IL8: microglia-derived chemokine released on A-beta stimulation
recruiting of neutrophils in the recapitulated AD environment [1]: effective for recruiting neutrophils

amyloid-beta [A-beta]
microglial activation markers CD11b and CD68 ([2]; exposure of microglia to soluble A-beta, immunostaining): up-regulation
secretion of anti-inflammatory markers (IL-1RA, IL-4, IL-10, TGF-β) ([2]; microglia exposed to soluble A-beta): very low or no detectable
CCL2 concentration increase [2, 6]: 1.4 fold
IL-6 concentration increase [2, 6]: 1.9 fold
IL-8 concentration increase [2, 6]: 2.3 fold
chemokine release of CCL3/4, CCL5 [2, 6]: new chemokine release
higher neutrophil migration in central chamber ([1]; 10,000 microglia in central chamber): 2.4 times
higher neutrophil migration in central chamber ([1]; 20,000 microglia in central chamber): 1.2 times
neutrophil migration ([1]; A-beta alone, no microglia): Negligible neutrophil migration
persistence of neutrophil migration ([1]; co-culture with soluble A-beta activated microglial cells): about 92%
microglial chemoattraction [3]: acting as a microglial chemoattractant

IL6: interleukin (IL)-6; microglia-derived cytokine, also used as recombinant protein
recruiting of neutrophils in the recapitulated AD environment [1]: effective for recruiting neutrophils
invasiveness of glioma cells [4]: enhanced the invasiveness

N-formyl-methionine-leucine-phenylalanine [fMLP]
neutrophils migrated back from chemoattractant ([5]; 1 nM fMLP): 17.8±2.8%
neutrophils migrated towards chemoattractant ([5]; 1 nM fMLP): 82.2±3.4%
magnitude of cell recruitment (recruitment index), 10 nM compared to 1 nM ([5]; 10 nM fMLP compared to 1 nM fMLP, central chamber, 6 hours): 1.6 times
neutrophils migrated back from chemoattractant ([5]; 10 nM fMLP): 11.5±1.7%
neutrophils migrated towards chemoattractant ([5]; 10 nM fMLP): 88.5±3.8%
time to plateau of neutrophil response ([5]; fMLP in central chamber): ≤ 6 h
decrease in the total fraction of migrating cells ([5]; increasing fMLP from 10 nM to 1 μM): 63%
speed of neutrophils moving through migration channels ([5]; migrating towards fMLP): 18±5 μm/min
time to reach central chamber ([5]; migrating towards fMLP): less than 30 min

CCL2: microglia-derived chemokine released on A-beta stimulation
recruiting of neutrophils in the recapitulated AD environment [1]: effective for recruiting neutrophils

B1: CCL5: microglia-derived chemokine released on A-beta stimulation (protein, UniProt P13501 24-91, looked up)
C-C motif chemokine 5: SPYSSDTTPCCFAYIARPLPRAHIKEYFYTSGKCSNPAVVFVTRKNRQVCANPEKKWVREYINSLEMS
recruiting of neutrophils in the recapitulated AD environment [1]: effective for recruiting neutrophils
